Results published in PubChem BioAssay AID248 (DTP/NCI, 2004).
Where “and” joins values, the source holds several entries; their conditions need not be identical. Equal entries are not always repeated. Toxic doses and inconclusive results are not listed. Cut-off read from the data, not from the text of the source: active = T/C of 150% or more; inactive = T/C below 125%.

Test system: L1210 leukemia ip in BDF1 mice, survival T/C
Assay: NCI In Vivo Anticancer Drug Screen. Data for tumor model L1210 Leukemia (intraperitoneal) in B6D2F1 (BDF1) mice
Conditions: endpoint: mean survival time, higher = longer survival
Procedure, shortened: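 Survival endpoint. Drug-treated group vs vehicle group, expressed as T divided by C. Tumor passaged by transplantation.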

[1] = dose: 75.0 mg/kg/injection, schedule: Q01DX001 (ip), vehicle: saline
[2] = dose: 150.0 mg/kg/injection, schedule: Q01DX001 (ip), vehicle: saline
[3] = dose: 100.0 mg/kg/injection, schedule: Q04DX002 (ip), vehicle: saline with Tween-80
[4] = dose: 200.0 mg/kg/injection, schedule: Q04DX002 (ip), vehicle: saline with Tween-80
[5] = dose: 400.0 mg/kg/injection, schedule: Q04DX002 (ip), vehicle: saline with Tween-80
[6] = dose: 100.0 mg/kg/injection, schedule: Q04DX003 (ip), vehicle: Klucel (hydroxypropylcellulose) (HPC)
[7] = dose: 200.0 mg/kg/injection, schedule: Q04DX003 (ip), vehicle: Klucel (hydroxypropylcellulose) (HPC)
[8] = dose: 400.0 mg/kg/injection, schedule: Q04DX003 (ip), vehicle: Klucel (hydroxypropylcellulose) (HPC)
[9] = dose: 100.0 mg/kg/injection, schedule: Q01DX009 (ip), vehicle: saline
[10] = dose: 200.0 mg/kg/injection, schedule: Q01DX009 (ip), vehicle: saline
[11] = dose: 100.0 mg/kg/injection, schedule: Q01DX001 (ip), vehicle: saline
[12] = dose: 200.0 mg/kg/injection, schedule: Q01DX001 (ip), vehicle: saline

Measured: T/C

CCCCCCCCCCCCCCOS(=O)(=O)O
inactive: dose: 37.5 mg/kg/injection, schedule: Q04DX003 (ip), vehicle: saline 100 % of control | [1] 95 % of control | dose: 75.0 mg/kg/injection, schedule: Q04DX003 (ip), vehicle: saline 94 % of control | [2] 92 % of control | dose: 150.0 mg/kg/injection, schedule: Q04DX003 (ip), vehicle: saline 92 % of control

O=c1[nH]c2ccc(Cl)cc2c2nc3ccccc3n12
inactive: dose: 50.0 mg/kg/injection, schedule: Q01DX009 (ip), vehicle: Klucel (hydroxypropylcellulose) (HPC) 107 % of control | dose: 100.0 mg/kg/injection, schedule: Q01DX009 (ip), vehicle: Klucel (hydroxypropylcellulose) (HPC) 101 % of control | dose: 200.0 mg/kg/injection, schedule: Q01DX009 (ip), vehicle: Klucel (hydroxypropylcellulose) (HPC) 92 % of control

O=C(O)c1cccnc1C(=O)Nc1cccc2ccccc12
inactive: [3] 105 % of control | [4] 105 % of control | [5] 105 % of control

O=C(Nc1ccccc1)C(Cl)Cl
inactive: dose: 100.0 mg/kg/injection, schedule: Q01DX009 (ip), vehicle: saline with Tween-80 96 % of control | dose: 200.0 mg/kg/injection, schedule: Q01DX009 (ip), vehicle: saline with Tween-80 91 % of control | dose: 400.0 mg/kg/injection, schedule: Q01DX009 (ip), vehicle: saline with Tween-80 96 % of control

CC1(C(N)=O)OC12CCCCC2CCC(=O)O (centres undefined)
inactive: [6] 102 % of control | [7] 93 % of control | [8] 93 % of control

Cc1ccc(C#N)cc1.Cc1ccc(C#N)cc1.[Cl][Pt][Cl]
inactive: dose: 6.25 mg/kg/injection, schedule: Q04DX003 (ip), vehicle: water 109 % of control | dose: 12.5 mg/kg/injection, schedule: Q04DX003 (ip), vehicle: water 109 % of control | dose: 25.0 mg/kg/injection, schedule: Q04DX003 (ip), vehicle: water 106 % of control | dose: 50.0 mg/kg/injection, schedule: Q04DX003 (ip), vehicle: water 105 % of control

CCC(=O)ONO
inactive: dose: 50.0 mg/kg/injection, schedule: Q01DX009 (ip), vehicle: saline 94 % of control | [9] 102 % of control | [10] 94 % of control

Nc1nc(=S)[nH]c(C(=O)O)c1Cc1ccccc1
inactive: dose: 10.0 mg/kg/injection, schedule: Q04DX003 (ip), vehicle: Klucel (hydroxypropylcellulose) (HPC) 101 % of control | dose: 20.0 mg/kg/injection, schedule: Q01DX009 (ip), vehicle: Klucel (hydroxypropylcellulose) (HPC) 92 % of control | dose: 20.0 mg/kg/injection, schedule: Q04DX003 (ip), vehicle: Klucel (hydroxypropylcellulose) (HPC) 95 % of control | dose: 40.0 mg/kg/injection, schedule: Q01DX009 (ip), vehicle: Klucel (hydroxypropylcellulose) (HPC) 104 % of control | dose: 40.0 mg/kg/injection, schedule: Q04DX003 (ip), vehicle: Klucel (hydroxypropylcellulose) (HPC) 98 % of control | dose: 80.0 mg/kg/injection, schedule: Q01DX009 (ip), vehicle: Klucel (hydroxypropylcellulose) (HPC) 98 % of control

O=[N+]([O-])c1cccc(C=Nc2ccccc2)c1
inactive: [6] 112 % of control | [7] 96 % of control | [8] 96 % of control

Cc1ccccc1OCc1nc(-c2ccc(N(CCCl)CCCl)cc2)cs1
inactive: dose: 100.0 mg/kg/injection, schedule: Q01DX001 (ip), vehicle: carboxymethylcellulose (CMC) 101 % of control | dose: 200.0 mg/kg/injection, schedule: Q01DX001 (ip), vehicle: carboxymethylcellulose (CMC) 113 % of control | dose: 400.0 mg/kg/injection, schedule: Q01DX001 (ip), vehicle: carboxymethylcellulose (CMC) 104 % of control

Cc1cn(C2CC(OS(C)(=O)=O)C(COC(c3ccccc3)(c3ccccc3)c3ccccc3)O2)c(=O)[nH]c1=O (centres undefined)
inactive: dose: 100.0 mg/kg/injection, schedule: Q01DX005 (ip), vehicle: saline 104 % of control | dose: 200.0 mg/kg/injection, schedule: Q01DX005 (ip), vehicle: saline 96 % of control

O=C1NC(=O)C2C3C=CC(O3)C12 (centres undefined)
inactive: [9] 106 % of control | [10] 95 % of control | dose: 400.0 mg/kg/injection, schedule: Q01DX009 (ip), vehicle: saline 97 % of control

CN(N=O)C(=O)NCCn1cnc2c(=S)nc[nH]c21
inactive: dose: 6.0 mg/kg/injection, schedule: Q01DX Z (ip), vehicle: carboxymethylcellulose (CMC) 95 % of control | dose: 12.0 mg/kg/injection, schedule: Q01DX Z (ip), vehicle: carboxymethylcellulose (CMC) 92 % of control | dose: 25.0 mg/kg/injection, schedule: Q01DX Z (ip), vehicle: carboxymethylcellulose (CMC) 109 % of control | dose: 50.0 mg/kg/injection, schedule: Q01DX Z (ip), vehicle: carboxymethylcellulose (CMC) 114 % of control | dose: 100.0 mg/kg/injection, schedule: Q01DX Z (ip), vehicle: carboxymethylcellulose (CMC) 104 % of control | dose: 150.0 mg/kg/injection, schedule: Q01DX Z (ip), vehicle: carboxymethylcellulose (CMC) 121 % of control

C=CCCCCCCCCC(=O)O
inactive: dose: 100.0 mg/kg/injection, schedule: Q01DX009 (ip), vehicle: other 104 % of control | dose: 100.0 mg/kg/injection, schedule: Q04DX002 (ip), vehicle: other 87 % of control | dose: 200.0 mg/kg/injection, schedule: Q01DX009 (ip), vehicle: other 93 % of control | dose: 200.0 mg/kg/injection, schedule: Q04DX002 (ip), vehicle: other 112 % of control | dose: 400.0 mg/kg/injection, schedule: Q01DX009 (ip), vehicle: other 89 % of control

Cc1ccc([S+](c2ccccc2)c2cc(C)ccc2C)cc1 (centres undefined)
inactive: dose: 2.5 mg/kg/injection, schedule: Q01DX001 (ip), vehicle: carboxymethylcellulose (CMC) 103 % of control | dose: 5.0 mg/kg/injection, schedule: Q01DX001 (ip), vehicle: carboxymethylcellulose (CMC) 102 % of control

CC(=O)c1ccc(NC(=O)c2ccc(C(=O)Nc3ccc(C(C)=O)cc3)cc2)cc1
inactive: [11] 100 % of control | [12] 96 % of control | dose: 400.0 mg/kg/injection, schedule: Q01DX001 (ip), vehicle: saline 102 % of control

CC(=O)OCC1OC(OC2CCCc3c(O)c4c(c(O)c32)C(=O)c2ccccc2C4=O)C(OC(C)=O)C(OC(C)=O)C1OC(C)=O (centres undefined)
inactive: dose: 40.0 mg/kg/injection, schedule: Q01DX001 (ip), vehicle: saline 86 % of control | dose: 80.0 mg/kg/injection, schedule: Q01DX001 (ip), vehicle: saline 92 % of control

CCOC(=O)C(N)CCl (centres undefined)
inactive: dose: 6.25 mg/kg/injection, schedule: Q01DX001 (ip), vehicle: saline 100 % of control | dose: 12.5 mg/kg/injection, schedule: Q01DX001 (ip), vehicle: saline 101 % of control | dose: 25.0 mg/kg/injection, schedule: Q01DX001 (ip), vehicle: saline 101 % of control | dose: 50.0 mg/kg/injection, schedule: Q01DX001 (ip), vehicle: saline 99 % of control | [11] 97 % of control | [12] 95 % of control

CCCCCOC(=O)C(C)(O)C(Cl)c1ccccc1 (centres undefined)
inactive: dose: 100.0 mg/kg/injection, schedule: Q04DX002 (ip), vehicle: saline 102 % of control and 106 % of control | dose: 200.0 mg/kg/injection, schedule: Q04DX002 (ip), vehicle: saline 98 % of control and 103 % of control | dose: 400.0 mg/kg/injection, schedule: Q04DX002 (ip), vehicle: saline 91 % of control | dose: 600.0 mg/kg/injection, schedule: Q04DX002 (ip), vehicle: saline 117 % of control

CCc1ccc(OC/C=C(/C)CC/C=C(\C)CCC=C(C)C)cc1
inactive: [3] 110 % of control | [4] 97 % of control | [5] 87 % of control

C/C=C(\C)C1(CC)C(=O)NC(=O)N(C)C1=O (centres undefined)
inactive: [1] 93 % of control | [2] 97 % of control
